Four compounds from patent US20230265151A1, “GIP/GLP1 CO-AGONIST COMPOUNDS” (priority 2020, published 2023) can be followed below.

As usually defined, the EC50 is the midpoint of the concentration-response curve. For orientation: Emax means the greatest response seen or fitted, relative to the assay's reference.

Where two headings read alike, the source gives them in different places.

What all share (type): cell-based
The target in test [1] is T1, hGCGR (Homo sapiens, UniProt P47871).
T1 construct: expressed in transfected cells
T1 sequence (P47871 26-477): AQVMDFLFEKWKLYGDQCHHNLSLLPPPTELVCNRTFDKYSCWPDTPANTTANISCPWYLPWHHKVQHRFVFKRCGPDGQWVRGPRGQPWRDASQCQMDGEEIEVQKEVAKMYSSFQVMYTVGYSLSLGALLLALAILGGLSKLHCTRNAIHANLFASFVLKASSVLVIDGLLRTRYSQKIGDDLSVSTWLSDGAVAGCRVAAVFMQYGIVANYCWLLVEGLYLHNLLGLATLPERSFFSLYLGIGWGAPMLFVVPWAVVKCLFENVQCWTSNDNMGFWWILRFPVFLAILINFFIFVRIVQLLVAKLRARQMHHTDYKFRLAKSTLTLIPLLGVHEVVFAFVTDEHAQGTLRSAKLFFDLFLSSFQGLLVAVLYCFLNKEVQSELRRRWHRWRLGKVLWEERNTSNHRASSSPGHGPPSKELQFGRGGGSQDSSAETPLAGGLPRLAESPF
The experiment in a line: Functional cAMP formation (HTRF) in HEK-293 clonal cells expressing hGCGR, 0.1% bovine casein, without or with 1.0% human serum albumin. Conditions: cAMP. In outline:
(§1)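 Cells were stimulated with peptide for 30 min at 37° C, then lysed in buffer carrying cAMP-d2 and anti-cAMP Eu3+-cryptate for a competitive HTRF read after at least 60 min at room temperature. The 665/620 nm ratio was converted to nM cAMP against a standard curve.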

Test [2] has as its target hGLP-1R (Homo sapiens, UniProt P43220). The experiment in a line: Functional cAMP formation (HTRF) in HEK-293 clonal cells expressing hGLP-1R, 0.1% bovine casein, without or with 1.0% human serum albumin. Set-up: expressed in transfected cells. The note with it: for Emax: 37° C., 0.1% bovine casein, arithmetic mean; for EC50: cAMP, incubated at 37° C., 0.1% bovine casein (no human serum albumin), geometric mean, read-out: hGLP-1R EC50, nM (SEM, n). The procedure:
After a 30-min incubation at 37° C., the resulting increase in intracellular cAMP is quantitatively determined using a CisBio cAMP Dynamic 2 HTRF Assay Kit (62AM4PEJ). Briefly, cAMP levels within the cell are detected by adding the cAMP-d2 conjugate in cell lysis buffer (10 µL) followed by the antibody anti-cAMP-Eu^3+-Cryptate, also in cell lysis buffer (10 µL). The resulting competitive assay is incubated for at least 60 min at room temperature, and then is detected using a PerkinElmer Envision® instrument with excitation at 320 nm and emission at 665 nm and 620 nm. Envision units (emission at 665 nm/620 nm* 10,000) are inversely proportional to the amount of cAMP present and are converted to nM cAMP per well us-ing a cAMP standard curve. […] A relative EC50 value and percent top (Emax) are derived by non-linear regression analysis using the percent maximal response vs. the concentration of peptide added, fitted to a four-parameter logistic equation.
On the technique in general: cAMP levels reflect the balance of adenylyl cyclase and phosphodiesterase activity.

Test [3] has as its target T2, hGIPR (Homo sapiens, UniProt P48546).
T2 construct: expressed in transfected cells
T2 sequence (P48546 22-466): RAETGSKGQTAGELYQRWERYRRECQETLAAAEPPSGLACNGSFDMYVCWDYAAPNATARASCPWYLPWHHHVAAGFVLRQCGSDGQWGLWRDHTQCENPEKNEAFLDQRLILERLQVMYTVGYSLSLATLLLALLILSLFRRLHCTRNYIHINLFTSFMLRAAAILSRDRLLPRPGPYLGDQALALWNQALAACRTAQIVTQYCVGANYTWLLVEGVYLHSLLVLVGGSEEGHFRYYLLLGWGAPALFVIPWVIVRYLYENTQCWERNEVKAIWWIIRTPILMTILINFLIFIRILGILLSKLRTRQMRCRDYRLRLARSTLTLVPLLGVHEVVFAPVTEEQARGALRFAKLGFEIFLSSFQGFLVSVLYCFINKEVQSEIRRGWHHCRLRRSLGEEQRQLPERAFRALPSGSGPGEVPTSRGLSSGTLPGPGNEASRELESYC
Kind of test: Functional cAMP formation (HTRF) in HEK-293 clonal cells expressing hGIPR, 0.1% bovine casein, without or with 1.0% human serum albumin. Conditions: HEK293, read-out: hGIPR Emax, % ± SEM, cAMP, 37° C., 0.1% bovine casein and 1.0% human serum albumin; percent of maximal response to GIP(1-42)NH2. In outline: as §1

Setting [4] is: incubated at 37° C., 0.1% bovine casein (no human serum albumin), geometric mean, read-out: hGCGR EC50, nM (SEM, n).

hGLP-1R, sequence (P43220 24-463): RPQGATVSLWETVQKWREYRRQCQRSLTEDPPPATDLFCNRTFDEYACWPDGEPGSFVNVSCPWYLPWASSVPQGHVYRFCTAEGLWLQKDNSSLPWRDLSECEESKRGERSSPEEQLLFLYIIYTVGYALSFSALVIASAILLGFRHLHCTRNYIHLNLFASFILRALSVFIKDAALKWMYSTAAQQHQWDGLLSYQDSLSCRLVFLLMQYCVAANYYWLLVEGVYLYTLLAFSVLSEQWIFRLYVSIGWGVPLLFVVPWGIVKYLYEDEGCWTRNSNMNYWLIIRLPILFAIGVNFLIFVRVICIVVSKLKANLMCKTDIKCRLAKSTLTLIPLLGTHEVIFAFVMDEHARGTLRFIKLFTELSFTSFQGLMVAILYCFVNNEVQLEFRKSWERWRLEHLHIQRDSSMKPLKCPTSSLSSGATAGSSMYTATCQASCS

Take `CC[C@H](C)[C@H](NC(=O)[C@H](CC(C)C)NC(=O)[C@](C)(Cc1ccc(O)cc1)NC(=O)[C@@H](CCC(=O)O)NC(=O)[C@@H](NC(=O)[C@H](Cc1ccccc1)NC(=O)[C@H](CCC(=O)O)NC(=O)[C@H](CCCN)NC(=O)[C@H](CCC(N)=O)NC(=O)[C@H](C)NC(=O)[C@H](CCCCNC(=O)COCCOCCNC(=O)COCCOCCNC(=O)CC[C@H](NC(=O)CCCCCCCCCCCCC(=O)O)C(=O)O)NC(=O)[C@H](CCCN)NC(=O)[C@H](CC(=O)O)NC(=O)[C@H](CC(C)C)NC(=O)[C@](C)(CC(C)C)NC(=O)[C@@H](NC(=O)[C@H](CO)NC(=O)[C@H](Cc1ccncc1)NC(=O)[C@H](CC(=O)O)NC(=O)[C@H](CO)NC(=O)[C@@H](NC(=O)[C@](C)(Cc1ccccc1F)NC(=O)[C@@H](NC(=O)CNC(=O)[C@H](CCC(=O)O)NC(=O)C(C)(C)NC(=O)[C@@H](N)Cc1ccc(O)cc1)[C@@H](C)O)[C@@H](C)O)[C@@H](C)CC)[C@@H](C)CC)C(=O)N[C@@H](CCC(=O)O)C(=O)NCC(=O)NCC(=O)N[C@@H](CCCCNC(=O)COCCOCCNC(=O)COCCOCCNC(=O)CC[C@H](NC(=O)CCCCCCCCCCCCC(=O)O)C(=O)O)C(=O)N[C@@H](CO)C(=O)N[C@@H](CO)C(=O)NCC(=O)N[C@@H](C)C(=O)N1CCC[C@H]1C(=O)N1CCC[C@H]1C(=O)N1CCC[C@H]1C(=O)N[C@@H](CO)C(N)=O` [Example 149]: the concentration giving a half-maximal response (EC50) was over 9950 nM in test [1] (setting [4]) and 1.5 nM in test [2]. For the same compound, the maximal effect (Emax) in test [2] (HEK293, percent of maximal response to GLP-1(7-36)NH2, read-out: hGLP-1R Emax, % ± SEM) was determined as 98.3 ± 0.579%.

On to `CC[C@H](C)[C@H](NC(=O)[C@H](CCCN)NC(=O)[C@H](CC(=O)O)NC(=O)[C@H](CC(C)C)NC(=O)[C@](C)(CC(C)C)NC(=O)[C@@H](NC(=O)[C@H](CO)NC(=O)[C@H](CCCCNC(=O)COCCOCCNC(=O)COCCOCCNC(=O)CC[C@H](NC(=O)CCCCCCCCCCCCC(=O)O)C(=O)O)NC(=O)[C@H](CC(=O)O)NC(=O)[C@H](CO)NC(=O)[C@@H](NC(=O)[C@](C)(Cc1ccccc1F)NC(=O)[C@@H](NC(=O)CNC(=O)[C@H](CCC(=O)O)NC(=O)C(C)(C)NC(=O)[C@@H](N)Cc1ccc(O)cc1)[C@@H](C)O)[C@@H](C)O)[C@@H](C)CC)C(=O)N[C@@H](C)C(=O)N[C@@H](CCC(N)=O)C(=O)NC(C)(C)C(=O)N[C@@H](CCCCNC(=O)COCCOCCNC(=O)COCCOCCNC(=O)CC[C@H](NC(=O)CCCCCCCCCCCCC(=O)O)C(=O)O)C(=O)N[C@@H](Cc1ccccc1)C(=O)N[C@H](C(=O)N[C@H](CCC(=O)O)C(=O)N[C@@](C)(Cc1ccc(O)cc1)C(=O)N[C@@H](CC(C)C)C(=O)N[C@H](C(=O)N[C@@H](CCC(=O)O)C(=O)NCC(=O)NCC(=O)N1CCC[C@H]1C(=O)N[C@@H](CO)C(=O)N[C@@H](CO)C(=O)NCC(=O)N[C@@H](C)C(=O)N1CCC[C@H]1C(=O)N1CCC[C@H]1C(=O)N1CCC[C@H]1C(=O)N[C@@H](CO)C(N)=O)[C@@H](C)CC)[C@@H](C)CC` [Example 105], for which the figures for the EC50 in test [1] (setting [4]) and in test [2] were over 9950 nM and 0.52 nM, respectively.

In test [1] (hGCGR EC50, nM (SEM, n), incubated at 37° C., 0.1% bovine casein (no human serum albumin), geometric mean), `CC[C@H](C)[C@H](NC(=O)[C@H](CC(C)C)NC(=O)[C@](C)(Cc1ccccc1)NC(=O)[C@H](CCCCNC(=O)COCCOCCNC(=O)COCCOCCNC(=O)CC[C@H](NC(=O)CCCCCCCCCCCCC(=O)O)C(=O)O)NC(=O)[C@@H](NC(=O)[C@](C)(Cc1ccccc1)NC(=O)[C@H](CCC(=O)O)NC(=O)C(C)(C)NC(=O)[C@H](CCC(N)=O)NC(=O)[C@H](C)NC(=O)[C@H](CCCCNC(=O)COCCOCCNC(=O)COCCOCCNC(=O)CC[C@H](NC(=O)CCCCCCCCCCCCC(=O)O)C(=O)O)NC(=O)[C@H](CCCN)NC(=O)[C@H](CC(=O)O)NC(=O)[C@H](CC(C)C)NC(=O)[C@](C)(CC(C)C)NC(=O)[C@@H](NC(=O)[C@H](CO)NC(=O)C1(NC(=O)[C@H](CC(=O)O)NC(=O)[C@H](CO)NC(=O)[C@@H](NC(=O)[C@](C)(Cc2ccccc2F)NC(=O)[C@@H](NC(=O)CNC(=O)[C@H](CCC(=O)O)NC(=O)C(C)(C)NC(=O)[C@@H](N)Cc2ccc(O)cc2)[C@@H](C)O)[C@@H](C)O)CCCC1)[C@@H](C)CC)[C@@H](C)CC)C(=O)N[C@@H](CCC(=O)O)C(=O)NCC(=O)NCC(=O)N1CCC[C@H]1C(=O)N[C@@H](CO)C(=O)N[C@@H](CO)C(=O)NCC(=O)N[C@@H](C)C(=O)N1CCC[C@H]1C(=O)N1CCC[C@H]1C(=O)N1CCC[C@H]1C(=O)N[C@@H](CO)C(N)=O` [Example 124] displayed a concentration for a half-maximal effect (EC50) of over 9950 nM. The Emax in test [2] (HEK293, read-out: hGLP-1R Emax, % ± SEM, percent of maximal response to GLP-1(7-36)NH2) stood at 93.3%.

With `CCCC[C@H](NC(=O)[C@H](CC(=O)O)NC(=O)[C@H](CO)NC(=O)[C@@H](NC(=O)[C@](C)(Cc1ccccc1F)NC(=O)[C@@H](NC(=O)CNC(=O)[C@H](CCC(=O)O)NC(=O)C(C)(C)NC(=O)[C@@H](N)Cc1ccc(O)cc1)[C@@H](C)O)[C@@H](C)O)C(=O)N[C@@H](CO)C(=O)N[C@H](C(=O)N[C@@](C)(CC(C)C)C(=O)N[C@@H](CC(C)C)C(=O)N[C@@H](CC(=O)O)C(=O)N[C@@H](CCCN)C(=O)N[C@@H](CCCCNC(=O)COCCOCCNC(=O)COCCOCCNC(=O)CC[C@H](NC(=O)CCCCCCCCCOc1ccc(C(=O)O)cc1)C(=O)O)C(=O)N[C@@H](C)C(=O)N[C@@H](CCC(N)=O)C(=O)NC(C)(C)C(=O)N[C@@H](CCC(=O)O)C(=O)N[C@@H](Cc1ccccc1)C(=O)N[C@H](C(=O)N[C@H](CCC(=O)O)C(=O)N[C@@](C)(Cc1ccc(O)cc1)C(=O)N[C@@H](CC(C)C)C(=O)N[C@H](C(=O)N[C@@H](CCCCNC(=O)COCCOCCNC(=O)COCCOCCNC(=O)CC[C@H](NC(=O)CCCCCCCCCOc1ccc(C(=O)O)cc1)C(=O)O)C(=O)NCC(=O)NCC(=O)N1CCC[C@H]1C(=O)N[C@@H](CO)C(=O)N[C@@H](CO)C(=O)NCC(=O)N[C@@H](C)C(=O)N1CCC[C@H]1C(=O)N1CCC[C@H]1C(=O)N1CCC[C@H]1C(=O)N[C@@H](CO)C(N)=O)[C@@H](C)CC)[C@@H](C)CC)[C@@H](C)CC` [Example 328], the Emax in test [3] stood at 85.5%. Further, the EC50 in test [1] (hGCGR EC50, nM (SEM, n), 37° C., 0.1% bovine casein (no human serum albumin), geometric mean) is over 9950 nM; in test [1] (hGCGR EC50, nM (SEM, n), 37° C., 0.1% bovine casein and 1.0% human serum albumin, geometric mean (SEM, n)), over 9950 nM.
